The test system of one experiment is Saccharomyces cerevisiae. The experiment can be described thus: Inhibition of alpha glucosidase from baker's yeast at 50 uM.
Experiment [1] has as its system Rattus norvegicus. The experiment can be described thus: Antidiabetic activity in po dosed Streptozotocin induced diabetic Sprague-Dawley rat assessed as decrease in serum glucose level after 60 mins. The class given is functional. More on the design: concentration or dose not given beside the values.
Experiment [2] concerns Rattus norvegicus. As to the kind of experiment: Antidiabetic activity in po dosed Streptozotocin induced diabetic Sprague-Dawley rat assessed as decrease in serum glucose level after 120 mins. The class given is functional. Set-up: scale not given: the % may be the effect or the level left.

Compound `C[C@H]1O[C@H](O[C@H]2[C@H](O)[C@@H](O)[C@@H](OC3[C@@H](CO)OC(O)[C@H](O)[C@H]3O)O[C@@H]2CO)[C@H](O)[C@@H](O)[C@@H]1N[C@H]1C=C(CO)[C@@H](O)[C@H](O)[C@H]1O` (single isomer, unassigned) returned an inhibition in the experiment with Saccharomyces cerevisiae of 88.1%.

Consider `Cc1ccc(Nc2nc(N)nc(COc3cccc4cccnc34)n2)cc1`, for which the Activity with Rattus norvegicus [1] is given as 20%. The compound also came in with an inhibition in the experiment on Saccharomyces cerevisiae of 78.9%.

In the case of `COc1ccc(N2C(=O)NC(=O)/C(=C\c3cccn3CCOc3cccc(C)c3)C2=O)cc1Cl`, the Activity in the experiment with Rattus norvegicus [2] amounted to 23%; in the experiment on Rattus norvegicus [1], 5%. For the same compound, in the experiment on Saccharomyces cerevisiae, the inhibition was determined as 88.7%.

Consider `N#C/C(=C\Nc1cccc(F)c1)c1nc(-c2cc3ccccc3oc2=O)cs1`, for which the Activity in the experiment with Rattus norvegicus [1] is recorded as 20%. In addition, the inhibition in the experiment with Saccharomyces cerevisiae was 75.2%.

Regarding `CCc1ccc(N2C(=O)NC(=O)/C(=C\c3cccn3CCOc3cccc(C)c3)C2=O)cc1`, the Activity in the experiment with Rattus norvegicus [1] worked out at 20%. Moreover, the inhibition in the experiment on Saccharomyces cerevisiae was 86%.

The inhibition is the percentage by which the read-out fell short of the control.

Values taken from ChEMBL document CHEMBL1157447, “Discovery and biological evaluation of novel alpha-glucosidase inhibitors with in vivo antidiabetic effect” (2008).
